System: Panel NCI-60 (60 carcinoma cell lines)
Experiment: In vitro mean of concentrations that inhibits cell growth across 60 cell lines of the NCI panel after incubation for 48 hr at 37 degree C was measured using SRB assay
Assay type: functional
Conditions: Homo sapiens

Structure (SMILES) | GI50
COc1cc2c(cc1OC)C(=O)N1CCC[C@H]1C=N2 | 2390 nM
COc1cc2c(cc1OC)C(=O)N1C=C(C#Cc3ccccc3)C[C@H]1C=N2 | < 10 nM
COc1cc2c(cc1OC)C(=O)N1C=C(c3cccs3)C[C@H]1C=N2 | 20 nM
C=CC1=CN2C(=O)c3cc(OC)c(OC)cc3N=C[C@@H]2C1 | 120 nM
COc1cc2c(cc1OC)C(=O)N1C=CC[C@H]1C=N2 | 1280 nM
COc1cc2c(cc1OC)C(=O)N1C=C(c3ccccc3)C[C@H]1C=N2 | < 10 nM
COc1cc2c(cc1OC)C(=O)N1C=C(c3ccco3)C[C@H]1C=N2 | < 10 nM
